Data reported in publication PMC5655689, “Therapeutic potential of the phosphino Cu(I) complex (HydroCuP) in the treatment of solid tumors” (Scientific Reports, 2017).

Experiments:
[1] = system: HCT-15 human colon cancer spheroids; test: 3D spheroid cell viability, acid phosphatase (APH) assay, HCT-15; type: cell-based; conditions: HCT-15 spheroids, 72 h
Experimental: (§1) In order to improve the predictive capacity of the in vitro assays, we tested HydroCuP activity in two 3D cell cultures of human colon cancer cells, HCT-15 and LoVo. The colon cancer spheroids were treated with HydroCuP for 72 h and the cell viability was assessed by means of the acid phosphatase (APH) assay (Fig. 1, panel A).
(§2) Figure 1 Activity in 3D cell cultures. (A) Spheroids (2.5 × 10^3 cells/well) were treated for 72 h with increasing concentrations of tested compounds. The growth inhibitory effect was evaluated by means of APH test. IC50 values were calculated from the dose-survival curves by four parameter logistic model (P < 0.05). SD = standard deviation.
(§3) Spheroids were initiated in liquid overlay by seeding 2.5 × 10^3 HCT-15 and LoVo cells/well in phenol red-free RPMI-1640 medium (Sigma Chemical Co.), containing 10% FCS and supplemented with 20% methyl cellulose stock solution. A total of 150 μl of this cell suspension was transferred to each well of a round bottom non-tissue culture treated 96 well-plate (Greiner Bio-one, Kremsmünster, Austria) to allow spheroid formation within 72 h.
(§4) A modified APH assay, which is based on quantification of cytosolic acid phosphatase activity, was used for determining cell viability in spheroids. Briefly, the pre-seeded spheroids were treated with fresh medium containing the compound to be studied at the appropriate concentration (range 5–150 μM). Triplicate cultures were established for each treatment. After 72 h, each well was treated with 100 μL of the assay buffer (0.1 M sodium acetate, 0.1% Triton-X-100, supplemented with ImmunoPure p-nitrophenyl phosphate; Sigma Chemical Co.) and, following 3 h of incubation, 10 μL of 1 M NaOH solution were added. The inhibition of the cell growth induced by the tested complexes was detected by measuring the absorbance of each well at 405 nm, using a Bio-Rad 680 microplate reader. Mean absorbance for each drug dose was expressed as a percentage of the control untreated well absorbance (T/C) and plotted vs drug concentration. IC50 values, the drug concentrations that reduce the mean absorbance at 405 nm 50% of those in the untreated control wells, were calculated by four-parameter logistic (4-PL) model. Evaluation was based on means from at least four independent experiments.

[2] = Tissue distribution of copper in LLC-bearing mice (GF-AAS); type: in vivo, mouse; conditions: single i.p. 50 mg/kg on day 10, 24 h
Experimental: To better understand the pharmacology and toxicology of the novel copper(I) complex, tissue samples, collected from LCC-bearing C57BL mice were analysed. […] On day 10 after tumor implantation, mice were treated with a single i.p. injection of 50 mg/kg of HydroCuP. After 24 hours, animals were sacrificed and copper content was quantified by graphite furnace atomic absorption spectroscopy (GF-AAS) analysis in several organs and normalized to control mice tissues. The solid tumor mass presented the highest copper concentration (at least 1.4 times higher than that detected in spleen), followed by spleen, kidney, liver and stomach.
Figure 3 Tissue distribution in LLC bearing C57BL mice. C57BL mice were inoculated i.m. on the right flank with LLC cells (2 × 10^6). After 10 days, HydroCuP was administered i.p. at a dose of 50 mg/kg. The mice were sacrificed after 24 hours and tumor, brain, spleen, kidney, intestine, liver and stomach were excised. Tissues were washed in ice-cold saline and weighed after removing excess fluid. All samples were mineralized in HNO3 and Cu content in each sample was measured by GF-AAS.
C57BL mice were inoculated […]. on the right flank with LLC cells (2 × 10^6). […] All samples were mineralized in HNO3 and Cu content in each sample was measured by GF-AAS (Graphite Furnace Atomic Absorption Spectroscopy).

[3] = system: 2D human cancer cell cultures; design: method as in PMID 18251492, PMID 21388518; conditions: cited from earlier work
[4] = system: LoVo colorectal oxaliplatin-sensitive xenograft; test: In vivo activity toward LoVo (OXP-sensitive) tumor xenograft in BALB/c nu/nu mice; conditions: 30 mg/kg daily i.p. from day 14, day 30
Experimental: (§5) To this aim, we developed the OXP-sensitive and OXP-resistant LoVo xenografts in BALB/c nu/nu mice. […] OXP-sensitive or OXP-resistant LoVo cells (1 × 10^7) were injected in the flank of mice. Once tumor was established (tumor volumes of about 0.4 cm^3, around 14 days after tumor inoculation), mice were randomly divided into six groups (6 animals per group, 8 controls). The HydroCuP-treated groups (6 mice each group) received daily 30 mg/kg by i.p. injection and the OXP-treated group was given 2 mg/kg by i.p. injection. At day 30, animals were sacrificed, and the inhibition of tumor growth was determined (Fig. 4, panel A). Measurements of body weights were recorded from day 14 every 2 days until the experimental endpoint (Fig. 4, panel B).
(§6) (A) LoVo and LoVo-OXP tumor xenografts in 6-week-old BALB/c nu/nu mice by injecting 1 × 10^7 tumor cells subcutaneously on the left dorsal flank. After 24 h from tumor implantation, mice randomly divided into six groups (6 animals per group). Chemotherapy delayed until day 14 (tumor volumes of about 0.4 cm^3). From day 14, HydroCuP dosed daily at 30 mg/kg i.p., OXP dosed daily at 2 mg/kg i.p. At day 30, animals sacrificed, and the inhibition of tumor growth determined by comparing the volume of the control group and the treatment group expressed as percentage referred to the control animals. Error bars indicate the S.D. *p < 0.05, **p < 0.01, with respect to control. […] Body weight was measured every two days and was taken as a parameter of systemic toxicity. The error bars indicate the S.D. **P < 0.01; *P < 0.05.
(§7) LoVo and LoVo-OXP tumor xenografts were established in 6-week-old BALB/c nu/nu mice by injecting 1 × 10^7 tumor cells subcutaneously (100 μL in serum free medium) on the left dorsal flank. After 24 h from tumor implantation, mice were randomly divided into six groups (6 animals per group, 8 controls). Chemotherapy was delayed until the tumor was about 0.4 cm^3 (day 14). From day 14, HydroCuP was dosed daily at 30 mg/kg i.p. whereas OXP was dosed daily at 2 mg/kg i.p. Measurements of body weights and tumor volumes were recorded from day 14 every 2 days until the experimental endpoint. The long axis (L) and the short axis (S) were measured with callipers, and the tumor volume (V) was calculated using the following equation: V = SxSxL/2. At day 30, animals were sacrificed, and the inhibition of tumor growth was determined by comparing the volume of the control group and the treatment group expressed as percentage referred to the control animals.

[5] = system: p-PERK and p-IRE1 (UPR pathway); test: IHC analysis of p-PERK and p-IRE1 in LLC tumor samples; type: in vivo, mouse; conditions: later-stage regimen
Description: In order to investigate the in vivo activation of the UPR induced by HydroCuP, the levels of the phospho-PERK (p-PERK) and phospho-IRE1 (p-IRE1) were detected in tumor samples derived from treated LCC-bearing mice (following later-stage regimen). […] In control samples, p-PERK staining was found moderate in cytoplasm (in about 40% cell population) and intense in perinuclear-ER (about 5% of cell population). […] With regard to the […], p-IRE1, control tumors were weakly positive in cytoplasm (in about 15% cell population).
Figure 6 IHC analysis of p-PERK and p-IRE1 expression in LLC tumor samples. (A) Pictures show representative patterns of p-PERK and p-IRE1 expression by IHC in control LLC tumor samples (a and c) and in HydroCuP-treated tumor samples (b and d); magnification: ×10. (B) p-PERK (a) and p-IRE1 (b) values, evaluated in LLC tumor sections. The quantification of IHC images was performed by using Image J software. Columns indicate quantitative analysis in n = 3 different tumors per group; *P < 0.05.
To evaluate p-PERK and p-IRE1 expression, five-micron-thick formalin-fixed, paraffin-embedded (FFPE) tumor samples of LLC models (3 tumors/group, 3 sections/tumor and 3 images/sections) were stained by IHC using anti-human p-PERK (Thr981, Santa Cruz) or p-IRE1 (Ser724, Abcam) primary antibodies according to the manufacturer’s instructions. IHC was performed using a Leica Bond III Autostainer (Leica). Antigen retrieval was performed in citrate buffer for 15 min. Sections were counter-stained with Mayer’s haematoxylin. IHC results were evaluated by one experienced pathologist with no prior knowledge of experimental data. The quantification of IHC images was performed by using Image J software.

[6] = system: LoVo human colon cancer spheroids; test: 3D spheroid cell viability, acid phosphatase (APH) assay, LoVo; type: cell-based; conditions: 72 h
Experimental: as §1, §2, §3, §4

[7] = system: LoVo colorectal oxaliplatin-sensitive xenograft; conditions: mouse, in vivo, ip, 30 mg/kg
Experimental: as §5, §6, §7

[8] = system: DRG explants from 15 day-embryonic Sprague-Dawley rats; test: Neurotoxicity: neurite elongation in DRG explants; conditions: 48 h, DRG explants with NGF; OXP 5, 7.5, 10 μM; HydroCuP 5, 10, 20 μM
Experimental: To investigate the potential neurotoxic effect of HydroCuP, we employed a well-established in vitro model based on organotypic cultures of DRG from 15-day-old rat embryos. Neurite elongation under NGF influence was evaluated in DRG explants. […] For comparison purposes, the effect induced by the reference drugs OXP and CDDP was also tested.
OXP and HydroCuP toxicity at 48 h in DRG explants from 15 day-embryonic Sprague-Dawley rats. Representative images of neurite length in maturing DRG explants with different concentrations of OXP and HydroCuP (A). Bar: 500 µm.
DRG from E15 Sprague-Dawley rats (Envigo, San Pietro al Natisone, Italy) were aseptically removed and cultured onto a single layer of rat tail collagen surfaces in 35-mm dishes as previously described[36].
The DRG were incubated in AN2 medium [MEM added with 1.4 mM L-glutamine (Euroclone, Pero, Italy), 10% calf bovine serum (Hyclone, Thermo Scientific, Logan, UT) 50 µg/ml ascorbic acid, 0.6% glucose (Sigma-Aldrich) in the presence of 5 ng/ml nerve growth factor (NGF; Life Technologies, Monza, Italy) in a 5% CO2 humidified incubator at 37 °C.
To evaluate the neurotoxicity of HydroCuP and OXP, the DRG explants were treated for 2 h with NGF and subsequently exposed to each drug at different concentrations for 48 h. OXP was tested at 5, 7.5 and 10 μM while 5, 10 and 20 μM of HydroCuP was used. DRG treated with AN2 medium supplemented with 5 ng/ml NGF alone were used as controls. Phase-contrast micrographs were taken, and the length of the longest neurite in each DRG was measured by Image J (NIH, Bethesda, MD), using a standard calibration grating photographed at the same magnification. A compound is considered neurotoxic when the mean neurite elongation is reduced by 50% or more after drug exposure vs control.

**Q.** Which “IC50 fold lower than CDDP” value [1] does the source give for `F[P-](F)(F)(F)(F)F.OC[P+](CO)(CO)[Cu-3]([P+](CO)(CO)CO)([P+](CO)(CO)CO)[P+](CO)(CO)CO` [HydroCuP, [Cu(thp)4][PF6]] here?
**A.** The value was “about 2.5”.

**Q.** And the IC50 ([1]; APH test, read-out: IC50 (μM) ± SD HCT-15)?
**A.** Its IC50 is 27 ± 4.25 µM.

**Q.** And the “Copper content in brain with respect to control animals” value [2]?
**A.** The value was “no enhance in copper content was detectable in brain”.

**Q.** What about the “Copper concentration in tumor mass, times higher than in spleen” value ([2]; normalized to control mice tissues) of the same molecule?
**A.** The value was “at least 1.4”.

**Q.** And the “Fold more cytotoxic than CDDP” value [3]?
**A.** Its value is “up to 50”.

**Q.** And the “Fold more cytotoxic than OXP” value [3]?
**A.** Its value is ≤ 30.

**Q.** And the “Inhibition of tumor growth (decrease in final tumor volume)” value [4]?
**A.** The value was “about 65%”.

**Q.** What about the “Cytoplasmic p-PERK positivity vs control” value [5] of the same molecule?
**A.** The value was “no difference in cytoplasmic p-PERK positivity”.

**Q.** What about the “Perinuclear-ER p-PERK staining” value ([5]; control about 5% of cell population) of the same molecule?
**A.** Its value is “about 30%”.

**Q.** And the “Cytoplasmic p-IRE1 positivity (cell population)” value ([5]; control about 15% cell population)?
**A.** The value was “about 35%”.

**Q.** And the “IC50 fold lower than CDDP” value [6]?
**A.** Its value is “about 2.5”.

**Q.** And the IC50 ([6]; APH test, read-out: IC50 (μM) ± SD LoVo)?
**A.** Its IC50 is 23.3 ± 3.2 µM.

**Q.** What about the “Body weight and health vs control group” value [7] of the same molecule?
**A.** Its value is “No significant difference in body weight”.

**Q.** And the “Neurotoxic effect (neurite elongation)” value [8]?
**A.** Its value is “no neurotoxic effect even at the highest concentrations”.
